For assay [1], the target named is HCV NS3/4A protease genotype 1b (Hepatitis C virus genotype 1b, UniProt P26663). Description: HCV NS3/4A protease time-resolved fluorescence (TRF) assay, Ki against genotype 1b. In kind it is biochemical. The conditions noted are these: IC50 [gt-1b], NS3/4A protease TRF assay, genotype 1b enzyme 0.2 nM. An outline of the steps:
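Ki values come from IC50 fits corrected for substrate concentration and KM. The time-resolved fluorescence protease reaction used 25 nM peptide substrate, 2.5 h, room temperature, pH 7.5 HEPES buffer, after 30 min enzyme–inhibitor preincubation.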

For the next assay, the system named is HCV genotype 1b replicon. Description: HCV replicon assay, genotype 1b replicon EC50. In kind it is cell-based, Hepatitis C virus. The conditions noted are these: HCV replicon, genotype 1b, read-out: EC50 [gt-1b]. The method, boiled down:
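Replicon cells (Neo^r, some luciferase:Neo^r fusion); G418 removed at plating; compound dilution series, 24-48 h. Readout: RNA by 32P-probe hybridization/protection or TaqMan, normalized to cyclophilin A RNA, or luciferase. EC50 vs DMSO control, 4-parameter fit.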

Where two headings read alike, the source gives them in different places.

IC50 and EC50 data for 12 compounds are collected here from patent US8987195B2 (priority 2012, dated 2015).

HCV NS3/4A protease genotype 1b, sequence (P26663 1027-1657): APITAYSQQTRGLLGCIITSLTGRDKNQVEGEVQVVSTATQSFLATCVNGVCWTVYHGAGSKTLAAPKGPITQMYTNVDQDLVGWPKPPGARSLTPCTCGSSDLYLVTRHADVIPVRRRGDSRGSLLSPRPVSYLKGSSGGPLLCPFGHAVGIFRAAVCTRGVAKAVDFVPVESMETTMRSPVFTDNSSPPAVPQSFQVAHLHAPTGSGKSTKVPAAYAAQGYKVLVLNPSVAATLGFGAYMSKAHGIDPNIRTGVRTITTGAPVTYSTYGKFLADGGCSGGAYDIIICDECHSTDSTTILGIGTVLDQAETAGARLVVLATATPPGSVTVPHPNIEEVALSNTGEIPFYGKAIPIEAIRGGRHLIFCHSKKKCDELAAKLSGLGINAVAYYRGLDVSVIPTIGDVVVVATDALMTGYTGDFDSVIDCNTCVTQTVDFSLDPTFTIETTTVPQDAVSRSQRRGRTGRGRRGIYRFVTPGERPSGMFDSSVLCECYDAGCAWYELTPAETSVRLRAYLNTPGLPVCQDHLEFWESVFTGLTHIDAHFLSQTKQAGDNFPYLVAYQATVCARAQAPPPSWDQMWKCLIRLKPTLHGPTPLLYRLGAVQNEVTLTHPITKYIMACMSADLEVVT
HCV NS3/4A protease genotype 1b, sequence (P26663 1658-1711): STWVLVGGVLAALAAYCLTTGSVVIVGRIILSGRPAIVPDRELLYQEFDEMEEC

For orientation: IC50 means the concentration at which inhibition is half-maximal. By EC50 is commonly meant the concentration needed to bring the measured effect to its halfway point. For the compound `COc1ccc2nc(C)c3c(c2n1)CC[C@]1(C[C@H]2C(=O)N[C@]4(C(=O)NS(=O)(=O)C5(C)CC5)C[C@H]4/C=C\CCCCC[C@H](NC(=O)OC4CCCC4)C(=O)N2C1)O3` [Example 363, cyclopentyl [(2R,6S,12Z,13aS,14aR,16aS)-2′-methoxy-6′-methyl-14a-{[(1-methylcyclopropyl)sulfonyl]carbamoyl}-5,16-dioxo-1,5,6,7,8,9,9′,10,10′,11,13a,14,14a,15,16,16a-hexadecahydrospiro[cyclopropa[e]pyrrolo[1,2-a][1,4]diazacyclopentadecine-2,8′-pyrano[2,3-c][1,5]naphthyridin]-6-yl]carbamate], in assay [1], the concentration for half-maximal inhibition (IC50) amounted to 0.011 nM. Further, the 50% effective concentration (EC50) in the assay on HCV genotype 1b replicon (Hepatitis C virus) was 8.16 nM.
`COc1ccc2nc(C)c3c(c2n1)CC[C@]1(C[C@H]2C(=O)N[C@]4(C(=O)NS(=O)(=O)C5(C)CC5)C[C@H]4/C=C\CCCCC[C@H](NC(=O)OC4(C)CC4)C(=O)N2C1)O3` [Example 364, 1-methylcyclopropyl [(2R,6S,12Z,13aS,14aR,16aS)-2′-methoxy-6′-methyl-14a-{[(1-methylcyclopropyl)sulfonyl]carbamoyl}-5,16-dioxo-1,5,6,7,8,9,9′,10,10′,11,13a,14,14a,15,16,16a-hexadecahydrospiro[cyclopropa[e]pyrrolo[1,2-a][1,4]diazacyclopentadecine-2,8′-pyrano[2,3-c][1,5]naphthyridin]-6-yl]carbamate] displayed a 50% inhibitory concentration (IC50) in assay [1] of 0.012 nM. Also, the EC50 with HCV genotype 1b replicon (Hepatitis C virus) turned out to be 5.46 nM.
`COc1ccc2nc(C)c3c(c2n1)CC[C@]1(C[C@H]2C(=O)N[C@]4(C(=O)NS(=O)(=O)C5(C)CC5)C[C@H]4/C=C\CCCCC[C@H](NC(=O)OC4(C)CCC4)C(=O)N2C1)O3` [Example 365, 1-methylcyclobutyl [(2R,6S,12Z,13aS,14aR,16aS)-2′-methoxy-6′-methyl-14a-{[(1-methylcyclopropyl)sulfonyl]carbamoyl}-5,16-dioxo-1,5,6,7,8,9,9′,10,10′,11,13a,14,14a,15,16,16a-hexadecahydrospiro[cyclopropa[e]pyrrolo[1,2-a][1,4]diazacyclopentadecine-2,8′-pyrano[2,3-c][1,5]naphthyridin]-6-yl]carbamate]: in assay [1], half-maximal inhibition (IC50) was put at 0.02 nM. Besides, the EC50 with HCV genotype 1b replicon (Hepatitis C virus) came to 4.93 nM.
Consider `COc1ccc2nc(C)c3c(c2c1)CC[C@]1(C[C@H]2C(=O)N[C@]4(C(=O)NS(=O)(=O)C5(C)CC5)C[C@H]4/C=C\CCCCC[C@H](NC(=O)OC(C(C)(C)C)C(F)(F)F)C(=O)N2C1)O3` (stereo partly drawn) [Example 366, 1,1,1-trifluoro-3,3-dimethylbutan-2-yl [(2R,6S,12Z,13aS,14aR,16aS)-9′-methoxy-5′-methyl-14a-{[(1-methylcyclopropyl)sulfonyl]carbamoyl}-5,16-dioxo-1,1′,2′,5,6,7,8,9,10,11,13a,14,14a,15,16,16a-hexadecahydrospiro[cyclopropa[e]pyrrolo[1,2-a][1,4]diazacyclopentadecine-2,3′-pyrano[2,3-c]quinolin]-6-yl]carbamate], for which the half-maximal inhibitory concentration (IC50) in assay [1] was determined as 0.023 nM. Besides, the 50% effective concentration (EC50) in the assay with HCV genotype 1b replicon (Hepatitis C virus) stood at 6.46 nM.
In turn, `COc1ccc2nc(C)c3c(c2c1)CC[C@]1(C[C@H]2C(=O)N[C@]4(C(=O)NS(=O)(=O)C5(C)CC5)C[C@H]4/C=C\CCCCC[C@H](NC(=O)OC(C(C)(C)C)C(F)(F)F)C(=O)N2C1)O3` (stereo partly drawn) [Example 367, 1,1,1-trifluoro-3,3-dimethylbutan-2-yl [(2R,6S,12Z,13aS,14aR,16aS)-9′-methoxy-5′-methyl-14a-{[(1-methylcyclopropyl)sulfonyl]carbamoyl}-5,16-dioxo-1,1′,2′,5,6,7,8,9,10,11,13a,14,14a,15,16,16a-hexadecahydrospiro[cyclopropa[e]pyrrolo[1,2-a][1,4]diazacyclopentadecine-2,3′-pyrano[2,3-c]quinolin]-6-yl]carbamate] yielded a 50% inhibitory concentration (IC50) in assay [1] of 0.03 nM. For the same compound, the half-maximal effective concentration (EC50) with HCV genotype 1b replicon worked out at 3.61 nM.
In the case of `CC(C)COC(=O)N[C@H]1CCCCC/C=C\[C@@H]2C[C@@]2(C(=O)NS(=O)(=O)C2(C)CC2)NC(=O)[C@@H]2C[C@]3(CCc4c(c(C(F)F)nc5ccc(Cl)cc45)O3)CN2C1=O` [Example 368, 2-methylpropyl [(2R,6S,12Z,13aS,14aR,16aS)-9′-chloro-5′-(difluoromethyl)-14a-{[(1-methylcyclopropyl)sulfonyl]carbamoyl}-5,16-dioxo-1,1′,2′,5,6,7,8,9,10,11,13a,14,14a,15,16,16a-hexadecahydrospiro[cyclopropa[e]pyrrolo[1,2-a][1,4]diazacyclopentadecine-2,3′-pyrano[2,3-c]quinolin]-6-yl]carbamate], it took 0.017 nM to reach half-maximal inhibition in assay [1] (IC50). Moreover, the concentration for a half-maximal effect (EC50) in the assay with HCV genotype 1b replicon (Hepatitis C virus) was found to be 9.68 nM.
As to `COc1ccc2nc(C)c3c(c2c1)[C@H](F)C[C@]1(C[C@H]2C(=O)N[C@]4(C(=O)NS(=O)(=O)C5(C)CC5)C[C@H]4/C=C\CCCCC[C@H](NC(=O)OCC(C)(C)C)C(=O)N2C1)O3` [Example 371, 2,2-dimethylpropyl [(1′R,2S,6S,12Z,13aS,14aR,16aS)-1′-fluoro-9′-methoxy-5′-methyl-14a-{[(1-methylcyclopropyl)sulfonyl]carbamoyl}-5,16-dioxo-1,1′,2′,5,6,7,8,9,10,11,13a,14,14a,15,16,16a-hexadecahydrospiro[cyclopropa[e]pyrrolo[1,2-a][1,4]diazacyclopentadecine-2,3′-pyrano[2,3-c]quinolin]-6-yl]carbamate], the IC50 in assay [1] (K+ salt) came out at 0.015 nM. In the assay on HCV genotype 1b replicon (Hepatitis C virus, K+ salt), the EC50 is 1.27 nM.
In the same order, the values of `COc1ccc2nc(C)c3c(c2c1)[C@H](F)C[C@]1(C[C@H]2C(=O)N[C@]4(C(=O)NS(=O)(=O)C5(C)CC5)C[C@H]4/C=C\CCCCC[C@H](NC(=O)OCC(C)C)C(=O)N2C1)O3` [Example 372, 2-methylpropyl [(1′R,2S,6S,12Z,13aS,14aR,16aS)-1′-fluoro-9′-methoxy-5′-methyl-14a-{[(1-methylcyclopropyl)sulfonyl]carbamoyl}-5,16-dioxo-1,1′,2′,5,6,7,8,9,10,11,13a,14,14a,15,16,16a-hexadecahydrospiro[cyclopropa[e]pyrrolo[1,2-a][1,4]diazacyclopentadecine-2,3′-pyrano[2,3-c]quinolin]-6-yl]carbamate] are 0.01 nM and 2.12 nM.
As to `COc1ccc2nc(C)c3c(c2c1)[C@H](F)C[C@]1(C[C@H]2C(=O)N[C@]4(C(=O)NS(=O)(=O)C5(C)CC5)C[C@H]4/C=C\CCCCC[C@H](NC(=O)OC4CCCC4)C(=O)N2C1)O3` [Example 373, cyclopentyl [(1′R,2S,6S,12Z,13aS,14aR,16aS)-1′-fluoro-9′-methoxy-5′-methyl-14a-{[(1-methylcyclopropyl)sulfonyl]carbamoyl}-5,16-dioxo-1,1′,2′,5,6,7,8,9,10,11,13a,14,14a,15,16,16a-hexadecahydrospiro[cyclopropa[e]pyrrolo[1,2-a][1,4]diazacyclopentadecine-2,3′-pyrano[2,3-c]quinolin]-6-yl]carbamate], the IC50 in assay [1] (K+ salt) was 0.011 nM. The EC50 in the assay with HCV genotype 1b replicon (Hepatitis C virus, K+ salt) was 2.67 nM.
On to `COc1ccc2nc(C)c3c(c2n1)[C@H](F)C[C@]1(C[C@H]2C(=O)N[C@]4(C(=O)NS(=O)(=O)C5(C)CC5)C[C@H]4/C=C\CCCCC[C@H](NC(=O)OC(C)(C)C)C(=O)N2C1)O3` [Example 374, tert-butyl [(2S,6S,10′R,12Z,13aS,14aR,16aS)-10′-fluoro-2′-methoxy-6′-methyl-14a-{[(1-methylcyclopropyl)sulfonyl]carbamoyl}-5,16-dioxo-1,5,6,7,8,9,9′,10,10′,11,13a,14,14a,15,16,16a-hexadecahydrospiro[cyclopropa[e]pyrrolo[1,2-a][1,4]diazacyclopentadecine-2,8′-pyrano[2,3-c][1,5]naphthyridin]-6-yl]carbamate], for which the IC50 in assay [1] turned out to be 0.012 nM. The EC50 in the assay with HCV genotype 1b replicon (Hepatitis C virus) was determined as 2.29 nM.
Take `Cc1nc2ccccc2c2c1O[C@]1(CC2)C[C@H]2C(=O)N[C@]3(C(=O)NS(=O)(=O)C4(C)CC4)C[C@H]3/C=C\CCCCC[C@H](NC(=O)OC3CCC(F)(F)C3)C(=O)N2C1` (stereo partly drawn) [Example 375, 3,3-difluorocyclopentyl [(2R,6S,12Z,13aS,14aR,16aS)-5′-methyl-14a-{[(1-methylcyclopropyl)sulfonyl]carbamoyl}-5,16-dioxo-1,1′,2′,5,6,7,8,9,10,11,13a,14,14a,15,16,16a-hexadecahydrospiro[cyclopropa[e]pyrrolo[1,2-a][1,4]diazacyclopentadecine-2,3′-pyrano[2,3-c]quinolin]-6-yl]carbamate]: the IC50 in assay [1] came to 0.018 nM. In addition, in the assay with HCV genotype 1b replicon, the concentration for a half-maximal effect (EC50) was 6.38 nM.
In the same order, the values of `Cc1nc2ccccc2c2c1O[C@]1(CC2)C[C@H]2C(=O)N[C@]3(C(=O)NS(=O)(=O)C4(C)CC4)C[C@H]3/C=C\CCCCC[C@H](NC(=O)OC3CCC(F)(F)C3)C(=O)N2C1` (stereo partly drawn) [Example 376, 3,3-difluorocyclopentyl [(2R,6S,12Z,13aS,14aR,16aS)-5′-methyl-14a-{[(1-methylcyclopropyl)sulfonyl]carbamoyl}-5,16-dioxo-1,1′,2′,5,6,7,8,9,10,11,13a,14,14a,15,16,16a-hexadecahydrospiro[cyclopropa[e]pyrrolo[1,2-a][1,4]diazacyclopentadecine-2,3′-pyrano[2,3-c]quinolin]-6-yl]carbamate] are 0.013 nM and 2.69 nM.
